From PMC8754645 (Nucleic Acids Research, 2021)

Experiments:
PsrA = test: isothermal titration calorimetry, one-site model; format: binding, Serratia; details: 50 mM PBS pH 7.4, 25°C; 30 μM PsrA titrated with 0.3 mM ligand; effector, no DNA
[1] = target: PsrA-His6 (His-tagged PsrA, LysR family transcriptional regulator of Serratia marcescens JNB5-1) (Serratia marcescens JNB5-1); test: SEC

Compound: O=C(O)[C@@H]1CCCN1 [L-proline]
- Kd (PsrA): 13.6 µM

Compound: PsrA-His6 (His-tagged PsrA, LysR family transcriptional regulator of Serratia marcescens JNB5-1) (natural protein)
- stoichiometry N [1]: 4
